Experimental data taken from PubChem BioAssay AID248 (DTP/NCI, 2004).
Values joined by “and” are separate entries in the source; they are usually repeats but may differ in a detail not shown here. Equal values may be shown once. Toxic doses and inconclusive results are not listed. Rule as the data show it: active = T/C of 150% or more; inactive = T/C below 125%.

System: L1210 leukemia ip in BDF1 mice, survival T/C
Assay: NCI In Vivo Anticancer Drug Screen. Data for tumor model L1210 Leukemia (intraperitoneal) in B6D2F1 (BDF1) mice
Settings: endpoint: mean survival time, higher = longer survival
Procedure, shortened: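 Tumor cells were implanted, animals were treated, and survival was followed. The result divides the treated measurement by the vehicle-control measurement.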

[1] = dose: 100.0 mg/kg/injection, schedule: Q04DX003 (ip), vehicle: saline
[2] = dose: 200.0 mg/kg/injection, schedule: Q04DX003 (ip), vehicle: saline
[3] = dose: 400.0 mg/kg/injection, schedule: Q04DX003 (ip), vehicle: saline
[4] = dose: 100.0 mg/kg/injection, schedule: Q04DX003 (ip), vehicle: Klucel (hydroxypropylcellulose) (HPC)
[5] = dose: 200.0 mg/kg/injection, schedule: Q04DX003 (ip), vehicle: Klucel (hydroxypropylcellulose) (HPC)
[6] = dose: 400.0 mg/kg/injection, schedule: Q04DX003 (ip), vehicle: Klucel (hydroxypropylcellulose) (HPC)
[7] = dose: 100.0 mg/kg/injection, schedule: Q01DX001 (ip), vehicle: saline
[8] = dose: 200.0 mg/kg/injection, schedule: Q01DX001 (ip), vehicle: saline
[9] = dose: 400.0 mg/kg/injection, schedule: Q01DX001 (ip), vehicle: saline
[10] = dose: 75.0 mg/kg/injection, schedule: Q01DX001 (ip), vehicle: other
[11] = dose: 150.0 mg/kg/injection, schedule: Q01DX001 (ip), vehicle: other
[12] = dose: 300.0 mg/kg/injection, schedule: Q01DX001 (ip), vehicle: other

Measured: T/C

CN1C(c2ccco2)NC(=O)C12CCN(Cc1ccccc1)CC2 (stereo not given)
inactive: dose: 100.0 mg/kg/injection, schedule: Q01DX001 (ip), vehicle: carboxymethylcellulose (CMC) 101 % of control | dose: 200.0 mg/kg/injection, schedule: Q01DX001 (ip), vehicle: carboxymethylcellulose (CMC) 93 % of control

CCC[N+](=CC1CCCCC1)CCC
inactive: [1] 104 % of control | [2] 95 % of control | [3] 91 % of control

Nc1ccc(NC(=O)c2ccc(C(=O)Nc3ccc(N)cc3)cc2)cc1
inactive: dose: 30.0 mg/kg/injection, schedule: Q01DX Z (ip), vehicle: methylcellulose (MC) 103 % of control | dose: 60.0 mg/kg/injection, schedule: Q01DX Z (ip), vehicle: methylcellulose (MC) 103 % of control | dose: 120.0 mg/kg/injection, schedule: Q01DX Z (ip), vehicle: methylcellulose (MC) 95 % of control | dose: 125.0 mg/kg/injection, schedule: Q01DX Z (ip), vehicle: water 96 % of control | dose: 250.0 mg/kg/injection, schedule: Q01DX Z (ip), vehicle: water 93 % of control | dose: 500.0 mg/kg/injection, schedule: Q01DX Z (ip), vehicle: water 98 % of control

CN(C)c1ccc(/C=C/C(=O)c2ccc([N+](=O)[O-])cc2)c(Cl)c1
inactive: [4] 92 % of control | [5] 97 % of control | [6] 97 % of control

CC(=C(C#N)C#N)c1ccc(Cl)cc1
inactive: dose: 12.5 mg/kg/injection, schedule: Q01DX001 (ip), vehicle: Klucel (hydroxypropylcellulose) (HPC) 112 % of control | dose: 25.0 mg/kg/injection, schedule: Q01DX001 (ip), vehicle: Klucel (hydroxypropylcellulose) (HPC) 91 % of control | dose: 50.0 mg/kg/injection, schedule: Q01DX001 (ip), vehicle: Klucel (hydroxypropylcellulose) (HPC) 112 % of control | [4] 108 % of control

O=C(O)CCCC1OCCO1
inactive: dose: 100.0 mg/kg/injection, schedule: Q01DX001 (ip), vehicle: saline with Tween-80 98 % of control | dose: 200.0 mg/kg/injection, schedule: Q01DX001 (ip), vehicle: saline with Tween-80 95 % of control | dose: 400.0 mg/kg/injection, schedule: Q01DX001 (ip), vehicle: saline with Tween-80 101 % of control

CCCCNC(=O)Nc1ccccc1C(N)=O
inactive: dose: 100.0 mg/kg/injection, schedule: Q01DX009 (ip), vehicle: Klucel (hydroxypropylcellulose) (HPC) 97 % of control | [4] 98 % of control | dose: 200.0 mg/kg/injection, schedule: Q01DX009 (ip), vehicle: Klucel (hydroxypropylcellulose) (HPC) 95 % of control | [5] 94 % of control | dose: 400.0 mg/kg/injection, schedule: Q01DX009 (ip), vehicle: Klucel (hydroxypropylcellulose) (HPC) 105 % of control | [6] 96 % of control

CCC1=C[C@H]2CN(CCc3c([nH]c4ccccc34)[C@@](C(=O)OC)(c3cc4c(cc3OC)N(C)[C@H]3[C@@](O)(C(=O)OC)[C@H](OC(C)=O)[C@]5(CC)C=CCN6CC[C@]43[C@@H]65)C2)C1
inactive: dose: 0.25 mg/kg/injection, schedule: Q01DX009 (ip), vehicle: water 109 % of control | dose: 0.5 mg/kg/injection, schedule: Q01DX009 (ip), vehicle: water 101 % of control | dose: 1.0 mg/kg/injection, schedule: Q01DX009 (ip), vehicle: water 111 % of control | dose: 2.0 mg/kg/injection, schedule: Q01DX009 (ip), vehicle: water 103 % of control | dose: 4.0 mg/kg/injection, schedule: Q01DX009 (ip), vehicle: water 114 % of control | dose: 8.0 mg/kg/injection, schedule: Q01DX009 (ip), vehicle: water 112 % of control

c1ccc(-c2cc(-c3ccccc3)c(-c3ccccc3)c(-c3ccccc3)c2)cc1
inactive: dose: 50.0 mg/kg/injection, schedule: Q01DX001 (ip), vehicle: saline 100 % of control | [7] 100 % of control | [8] 100 % of control | [9] 100 % of control

CCCCSP(SCCCC)N1CCCCC1
inactive: [1] 102 % of control | [2] 98 % of control

CN=C(NC)c1ccc(NC(=O)c2ccc(C(=O)Nc3ccc(C(=NC)NC)c(C)c3)cc2)cc1C
inactive: dose: 4.4 mg/kg/injection, schedule: Q01DX Z (ip), vehicle: carboxymethylcellulose (CMC) 98 % of control | dose: 6.6 mg/kg/injection, schedule: Q01DX Z (ip), vehicle: carboxymethylcellulose (CMC) 102 % of control | dose: 10.0 mg/kg/injection, schedule: Q01DX Z (ip), vehicle: carboxymethylcellulose (CMC) 100 % of control | dose: 15.0 mg/kg/injection, schedule: Q01DX Z (ip), vehicle: carboxymethylcellulose (CMC) 107 % of control and 108 % of control and 112 % of control | dose: 22.5 mg/kg/injection, schedule: Q01DX Z (ip), vehicle: carboxymethylcellulose (CMC) 111 % of control | dose: 30.0 mg/kg/injection, schedule: Q01DX Z (ip), vehicle: carboxymethylcellulose (CMC) 96 % of control | dose: 35.0 mg/kg/injection, schedule: Q01DX Z (ip), vehicle: carboxymethylcellulose (CMC) 100 % of control

C1OC1C[N+]12CN3CN(CN(C3)C1)C2 (stereo not given)
inactive: dose: 100.0 mg/kg/injection, schedule: Q01DX005 (ip), vehicle: saline 92 % of control | dose: 100.0 mg/kg/injection, schedule: Q01DX009 (ip), vehicle: saline 109 % of control | dose: 200.0 mg/kg/injection, schedule: Q01DX005 (ip), vehicle: saline 113 % of control | dose: 200.0 mg/kg/injection, schedule: Q01DX009 (ip), vehicle: saline 106 % of control | dose: 400.0 mg/kg/injection, schedule: Q01DX005 (ip), vehicle: saline 103 % of control

Cc1c2ccccc2nc2ccccc12
inactive: [7] 106 % of control | [8] 98 % of control | [9] 101 % of control

O=c1[nH]c2ccncc2c(=O)n1OS(=O)(=O)c1ccccc1
inactive: dose: 75.0 mg/kg/injection, schedule: Q01DX009 (ip), vehicle: Klucel (hydroxypropylcellulose) (HPC) 92 % of control | dose: 150.0 mg/kg/injection, schedule: Q01DX009 (ip), vehicle: Klucel (hydroxypropylcellulose) (HPC) 95 % of control | dose: 300.0 mg/kg/injection, schedule: Q01DX009 (ip), vehicle: Klucel (hydroxypropylcellulose) (HPC) 94 % of control

NC(=O)N/N=C(\CBr)c1ccc([N+](=O)[O-])cc1
inactive: [1] 96 % of control | [2] 89 % of control | [3] 91 % of control

CCC/C=C(\C)C(C)(C#N)C(=O)OCC (stereo not given)
inactive: [10] 112 % of control | [11] 98 % of control | [12] 110 % of control

O=C(/C=C\c1ccc(C(=O)Nc2ccc(C3=NCCN3)cc2)cc1)Nc1ccc(C2=NCCN2)cc1
inactive: dose: 6.0 mg/kg/injection, schedule: Q01DX Z (ip), vehicle: water 110 % of control | dose: 11.0 mg/kg/injection, schedule: Q01DX Z (ip), vehicle: water 102 % of control | dose: 15.0 mg/kg/injection, schedule: Q01DX Z (ip), vehicle: saline 114 % of control | dose: 22.0 mg/kg/injection, schedule: Q01DX Z (ip), vehicle: water 104 % of control | dose: 30.0 mg/kg/injection, schedule: Q01DX Z (ip), vehicle: saline 120 % of control | dose: 45.0 mg/kg/injection, schedule: Q01DX Z (ip), vehicle: water 107 % of control | dose: 60.0 mg/kg/injection, schedule: Q01DX Z (ip), vehicle: saline 122 % of control | dose: 120.0 mg/kg/injection, schedule: Q01DX Z (ip), vehicle: saline 113 % of control | dose: 240.0 mg/kg/injection, schedule: Q01DX Z (ip), vehicle: saline 117 % of control | dose: 480.0 mg/kg/injection, schedule: Q01DX Z (ip), vehicle: saline 103 % of control

CCC(CC)NNC(CC)CC
inactive: [10] 105 % of control | dose: 75.0 mg/kg/injection, schedule: Q01DX001 (ip), vehicle: saline 98 % of control | [11] 98 % of control | dose: 150.0 mg/kg/injection, schedule: Q01DX001 (ip), vehicle: saline 96 % of control | [12] 118 % of control

Clc1ccc(CNc2ccc(Cl)c(Cl)c2)cc1
inactive: dose: 200.0 mg/kg/injection, schedule: Q04DX002 (ip), vehicle: saline with Tween-80 92 % of control | dose: 400.0 mg/kg/injection, schedule: Q04DX002 (ip), vehicle: saline with Tween-80 89 % of control
